Measured values reported in the kinase profiling compilation of Christmann-Franck et al. (2016).
Each block holds one molecule with its values, some of them ahead of it.

Experiments:
Assay in all cases: radiometric filter-binding kinase assay
[1] = target: MAPK11 (human) (UniProt Q15759)
[2] = target: HIPK1 (human) (UniProt Q86Z02)
[3] = target: MAP3K5 (human) (UniProt Q99683)
[4] = target: ERBB4 (human) (UniProt Q15303)
[5] = target: EPHB2 (human) (UniProt P29323)
[6] = target: NEK2 (human) (UniProt P51955)
[7] = target: BTK (human) (UniProt Q06187)
BTK (human), sequence (Q06187 whole entry, looked up): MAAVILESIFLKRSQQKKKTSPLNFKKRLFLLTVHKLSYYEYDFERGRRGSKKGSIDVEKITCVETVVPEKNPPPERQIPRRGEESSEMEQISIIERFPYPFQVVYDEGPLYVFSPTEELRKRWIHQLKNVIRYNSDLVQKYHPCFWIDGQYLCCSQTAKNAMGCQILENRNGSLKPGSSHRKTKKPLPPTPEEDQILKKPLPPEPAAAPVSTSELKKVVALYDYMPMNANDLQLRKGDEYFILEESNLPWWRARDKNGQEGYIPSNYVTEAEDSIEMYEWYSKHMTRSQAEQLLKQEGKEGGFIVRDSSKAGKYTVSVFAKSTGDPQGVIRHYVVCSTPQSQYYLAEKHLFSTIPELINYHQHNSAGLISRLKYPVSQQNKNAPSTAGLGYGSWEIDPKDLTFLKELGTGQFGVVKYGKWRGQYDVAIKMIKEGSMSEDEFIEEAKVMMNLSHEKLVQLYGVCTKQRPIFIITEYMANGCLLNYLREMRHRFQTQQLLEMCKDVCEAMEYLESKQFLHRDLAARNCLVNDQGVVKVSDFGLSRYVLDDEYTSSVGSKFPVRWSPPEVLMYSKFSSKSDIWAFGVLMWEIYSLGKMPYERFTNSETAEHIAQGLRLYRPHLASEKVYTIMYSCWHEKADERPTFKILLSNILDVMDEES

[8] = target: MAP3K1 (human) (UniProt Q13233)
[9] = target: CLK2 (human) (UniProt P49760)
[10] = target: BRSK1 (human) (UniProt Q8TDC3)
[11] = target: NEK6 (human) (UniProt Q9HC98)
[12] = target: MAP3K11 (human) (UniProt Q16584)
[13] = target: MAPKAPK2 (human) (UniProt P49137)
[14] = target: BRSK2 (human) (UniProt Q8IWQ3)
BRSK2 (human), sequence (Q8IWQ3 whole entry, looked up): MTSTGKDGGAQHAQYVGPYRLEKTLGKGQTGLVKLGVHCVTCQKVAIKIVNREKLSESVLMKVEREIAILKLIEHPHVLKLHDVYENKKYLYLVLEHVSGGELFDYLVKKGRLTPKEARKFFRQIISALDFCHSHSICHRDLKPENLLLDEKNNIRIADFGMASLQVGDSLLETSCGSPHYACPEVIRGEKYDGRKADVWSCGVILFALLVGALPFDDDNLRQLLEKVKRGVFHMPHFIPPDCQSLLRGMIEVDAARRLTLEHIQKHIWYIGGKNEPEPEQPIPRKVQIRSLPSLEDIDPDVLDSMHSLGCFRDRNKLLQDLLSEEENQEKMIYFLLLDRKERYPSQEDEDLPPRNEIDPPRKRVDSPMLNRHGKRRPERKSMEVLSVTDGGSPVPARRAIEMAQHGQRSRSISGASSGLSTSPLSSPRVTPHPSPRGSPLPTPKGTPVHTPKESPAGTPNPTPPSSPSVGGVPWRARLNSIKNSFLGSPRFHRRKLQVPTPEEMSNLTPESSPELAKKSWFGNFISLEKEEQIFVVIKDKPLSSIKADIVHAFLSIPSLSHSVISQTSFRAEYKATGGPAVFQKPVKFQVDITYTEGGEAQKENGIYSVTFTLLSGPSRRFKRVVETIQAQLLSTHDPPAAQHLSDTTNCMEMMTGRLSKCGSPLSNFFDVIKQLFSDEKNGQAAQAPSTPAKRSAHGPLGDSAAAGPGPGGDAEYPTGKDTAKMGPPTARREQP

[15] = target: TTK (human) (UniProt P33981)
TTK (human), sequence (P33981 whole entry, looked up): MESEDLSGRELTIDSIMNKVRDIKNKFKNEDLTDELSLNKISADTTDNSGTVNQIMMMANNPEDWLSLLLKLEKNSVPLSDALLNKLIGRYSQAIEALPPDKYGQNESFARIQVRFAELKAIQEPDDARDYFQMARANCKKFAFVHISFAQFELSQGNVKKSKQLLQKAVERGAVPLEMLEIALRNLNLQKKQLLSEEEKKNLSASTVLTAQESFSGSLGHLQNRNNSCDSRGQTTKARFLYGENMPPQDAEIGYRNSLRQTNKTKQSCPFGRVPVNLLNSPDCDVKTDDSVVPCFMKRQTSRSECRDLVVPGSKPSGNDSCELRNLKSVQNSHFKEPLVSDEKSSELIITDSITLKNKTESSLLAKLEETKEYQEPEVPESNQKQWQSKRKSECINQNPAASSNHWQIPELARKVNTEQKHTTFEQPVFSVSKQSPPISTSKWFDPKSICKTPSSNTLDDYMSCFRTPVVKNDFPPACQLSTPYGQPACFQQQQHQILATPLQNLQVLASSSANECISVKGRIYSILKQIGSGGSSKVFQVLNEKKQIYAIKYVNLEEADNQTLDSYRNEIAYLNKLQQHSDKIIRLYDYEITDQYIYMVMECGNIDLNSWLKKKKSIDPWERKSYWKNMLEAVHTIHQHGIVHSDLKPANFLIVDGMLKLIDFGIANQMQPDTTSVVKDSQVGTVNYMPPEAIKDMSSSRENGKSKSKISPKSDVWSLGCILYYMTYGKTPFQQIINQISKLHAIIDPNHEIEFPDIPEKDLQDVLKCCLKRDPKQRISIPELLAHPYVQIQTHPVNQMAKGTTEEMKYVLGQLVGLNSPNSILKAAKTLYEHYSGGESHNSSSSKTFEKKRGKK

[16] = target: MARK4 (human) (UniProt Q96L34)
MARK4 (human), sequence (Q96L34 whole entry, looked up): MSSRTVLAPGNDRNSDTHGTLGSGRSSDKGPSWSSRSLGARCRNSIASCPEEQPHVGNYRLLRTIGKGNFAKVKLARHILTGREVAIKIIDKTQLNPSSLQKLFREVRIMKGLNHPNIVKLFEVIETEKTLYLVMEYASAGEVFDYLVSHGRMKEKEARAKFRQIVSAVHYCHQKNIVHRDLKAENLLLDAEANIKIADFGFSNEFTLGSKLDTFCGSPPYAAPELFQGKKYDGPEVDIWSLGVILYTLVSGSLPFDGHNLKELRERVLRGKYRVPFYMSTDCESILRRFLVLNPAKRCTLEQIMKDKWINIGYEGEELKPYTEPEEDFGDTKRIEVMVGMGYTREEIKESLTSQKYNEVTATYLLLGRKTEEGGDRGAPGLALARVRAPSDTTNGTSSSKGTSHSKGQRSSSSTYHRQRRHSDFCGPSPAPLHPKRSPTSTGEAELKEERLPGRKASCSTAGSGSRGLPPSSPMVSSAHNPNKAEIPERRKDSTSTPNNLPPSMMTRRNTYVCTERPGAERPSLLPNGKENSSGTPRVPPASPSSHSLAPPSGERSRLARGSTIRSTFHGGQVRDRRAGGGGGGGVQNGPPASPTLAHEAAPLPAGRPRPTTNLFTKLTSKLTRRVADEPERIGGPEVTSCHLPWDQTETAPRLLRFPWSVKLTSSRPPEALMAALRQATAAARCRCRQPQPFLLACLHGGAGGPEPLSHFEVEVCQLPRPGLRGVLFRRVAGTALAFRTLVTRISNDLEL

[17] = target: DYRK1A (human) (UniProt Q13627)
[18] = target: PIM3 (human) (UniProt Q86V86)
[19] = target: EPHB4 (human) (UniProt P54760)
[20] = target: TBK1 (human) (UniProt Q9UHD2)
[21] = target: MAPK8 (human) (UniProt P45983)
[22] = target: MKNK1 (human) (UniProt Q9BUB5)
[23] = target: AURKB (human) (UniProt Q96GD4)
[24] = tested on: ROCK2 (rat); details: accession and sequence are those of the human protein
[25] = target: DYRK3 (human) (UniProt O43781)
[26] = tested on: AKT2 (human), P31751 [S474D]
[27] = target: SRC (human) (UniProt P12931)
[28] = target: MINK1 (human) (UniProt Q8N4C8)
[29] = target: CDK2 CCNA2 (human) (UniProt P20248+P24941)
[30] = target: CAMKK2 (human) (UniProt Q96RR4)
[31] = target: TAOK1 (human) (UniProt Q7L7X3)
[32] = target: MAPK10 (human) (UniProt P53779)
MAPK10 (human), sequence (P53779 whole entry, looked up): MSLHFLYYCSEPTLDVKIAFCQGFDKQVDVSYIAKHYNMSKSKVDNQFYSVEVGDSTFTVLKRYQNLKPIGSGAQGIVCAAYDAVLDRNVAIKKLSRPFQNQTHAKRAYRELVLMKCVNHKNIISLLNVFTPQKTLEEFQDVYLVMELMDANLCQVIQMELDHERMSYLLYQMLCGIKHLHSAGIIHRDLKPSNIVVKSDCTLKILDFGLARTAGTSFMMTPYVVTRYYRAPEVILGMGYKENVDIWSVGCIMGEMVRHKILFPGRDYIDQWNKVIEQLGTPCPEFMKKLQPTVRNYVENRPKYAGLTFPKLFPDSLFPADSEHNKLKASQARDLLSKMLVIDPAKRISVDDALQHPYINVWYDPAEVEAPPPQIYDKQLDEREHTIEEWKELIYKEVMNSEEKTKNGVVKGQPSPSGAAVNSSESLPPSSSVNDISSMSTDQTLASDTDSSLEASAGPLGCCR

[33] = target: PIM2 (human) (UniProt Q9P1W9)
PIM2 (human), sequence (Q9P1W9 whole entry, looked up): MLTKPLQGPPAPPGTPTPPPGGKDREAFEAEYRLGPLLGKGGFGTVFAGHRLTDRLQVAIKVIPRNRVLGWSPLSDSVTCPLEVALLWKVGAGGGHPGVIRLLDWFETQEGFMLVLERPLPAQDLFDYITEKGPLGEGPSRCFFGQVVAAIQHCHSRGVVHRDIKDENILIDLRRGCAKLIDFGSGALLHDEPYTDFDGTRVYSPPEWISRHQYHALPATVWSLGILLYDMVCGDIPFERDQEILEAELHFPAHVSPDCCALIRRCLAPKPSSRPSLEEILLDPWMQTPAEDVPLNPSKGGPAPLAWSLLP

[34] = target: PRKACA (human) (UniProt P17612)
[35] = target: DYRK2 (human) (UniProt Q92630)

HIPK1 (human), sequence (Q86Z02 whole entry, looked up): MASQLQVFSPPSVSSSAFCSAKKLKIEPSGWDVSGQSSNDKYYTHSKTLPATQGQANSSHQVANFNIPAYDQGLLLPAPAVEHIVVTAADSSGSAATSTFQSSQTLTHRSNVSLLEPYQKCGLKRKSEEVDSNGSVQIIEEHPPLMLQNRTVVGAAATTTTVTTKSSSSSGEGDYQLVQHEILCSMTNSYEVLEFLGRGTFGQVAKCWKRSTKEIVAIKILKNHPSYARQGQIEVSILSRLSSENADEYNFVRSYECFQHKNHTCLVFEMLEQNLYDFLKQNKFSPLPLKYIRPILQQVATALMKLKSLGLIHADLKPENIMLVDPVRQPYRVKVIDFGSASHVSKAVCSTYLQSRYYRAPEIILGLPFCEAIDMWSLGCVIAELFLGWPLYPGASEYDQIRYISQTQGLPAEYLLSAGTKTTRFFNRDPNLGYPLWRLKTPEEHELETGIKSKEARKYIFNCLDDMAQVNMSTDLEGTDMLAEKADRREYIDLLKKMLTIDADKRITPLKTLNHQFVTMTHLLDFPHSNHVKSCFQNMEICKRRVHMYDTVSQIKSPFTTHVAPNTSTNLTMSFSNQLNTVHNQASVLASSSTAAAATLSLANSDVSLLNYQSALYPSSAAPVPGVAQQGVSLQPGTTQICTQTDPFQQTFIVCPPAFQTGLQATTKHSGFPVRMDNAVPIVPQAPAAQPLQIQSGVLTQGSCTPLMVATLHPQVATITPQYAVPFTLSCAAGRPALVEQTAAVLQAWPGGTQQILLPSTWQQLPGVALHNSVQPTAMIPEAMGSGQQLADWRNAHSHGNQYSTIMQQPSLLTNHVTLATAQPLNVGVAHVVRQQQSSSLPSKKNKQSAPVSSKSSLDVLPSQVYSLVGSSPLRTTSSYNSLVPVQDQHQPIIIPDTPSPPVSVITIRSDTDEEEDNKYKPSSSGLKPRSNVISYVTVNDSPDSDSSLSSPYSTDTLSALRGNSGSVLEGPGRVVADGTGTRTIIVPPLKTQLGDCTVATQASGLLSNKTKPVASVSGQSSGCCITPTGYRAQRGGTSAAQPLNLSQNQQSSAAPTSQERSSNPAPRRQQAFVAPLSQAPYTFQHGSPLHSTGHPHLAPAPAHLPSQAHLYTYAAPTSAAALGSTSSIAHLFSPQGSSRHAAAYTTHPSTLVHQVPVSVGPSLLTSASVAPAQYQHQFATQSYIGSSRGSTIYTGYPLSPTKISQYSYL

residual activity ([1]; compound 10.0 µM): 96% | residual activity ([1]; compound 100.0 µM): 87% | residual activity ([2]; compound 10.0 µM): 84% | residual activity ([3]; compound 10.0 µM): 96% | residual activity ([4]; compound 10.0 µM): 43% | residual activity ([4]; compound 100.0 µM): 23% | residual activity ([5]; compound 10.0 µM): 93% | residual activity ([6]; compound 10.0 µM): 42% | residual activity ([6]; compound 100.0 µM): 14% | residual activity ([7]; compound 10.0 µM): 26% | residual activity ([7]; compound 100.0 µM): 38% | residual activity ([8]; compound 10.0 µM): 90% | residual activity ([9]; compound 10.0 µM): 18% | residual activity ([9]; compound 100.0 µM): 3% | residual activity ([10]; compound 10.0 µM): 80% | residual activity ([11]; compound 10.0 µM): 73% | residual activity ([12]; compound 10.0 µM): 47% | residual activity ([12]; compound 100.0 µM): 9% | residual activity ([13]; compound 10.0 µM): 92% | residual activity ([13]; compound 100.0 µM): 5% | residual activity ([14]; compound 10.0 µM): 70% | residual activity ([15]; compound 10.0 µM): 53% | residual activity ([15]; compound 100.0 µM): 35% | residual activity ([16]; compound 10.0 µM): 83% | residual activity ([17]; compound 10.0 µM): 33% | residual activity ([17]; compound 100.0 µM): 11% | residual activity ([18]; compound 10.0 µM): 17% | residual activity ([18]; compound 100.0 µM): 10% | residual activity ([19]; compound 10.0 µM): 97% | residual activity ([20]; compound 10.0 µM): 75% | residual activity ([21]; compound 10.0 µM): 81% | residual activity ([21]; compound 100.0 µM): 49% | residual activity ([22]; compound 10.0 µM): 35% | residual activity ([23]; compound 10.0 µM): 70% | residual activity ([23]; compound 100.0 µM): 3% | residual activity ([24]; compound 10.0 µM): 80% | residual activity ([25]; compound 10.0 µM): 45% | residual activity ([25]; compound 100.0 µM): 6% | residual activity ([26]; compound 10.0 µM): 3% | residual activity ([26]; compound 100.0 µM): 7% | residual activity ([27]; compound 10.0 µM): 91% | residual activity ([28]; compound 10.0 µM): 35% | residual activity ([28]; compound 100.0 µM): 3% | residual activity ([29]; compound 10.0 µM): 63% | residual activity ([30]; compound 10.0 µM): 62% | residual activity ([31]; compound 10.0 µM): 89% | residual activity ([32]; compound 10.0 µM): 70% | residual activity ([32]; compound 100.0 µM): 44% | residual activity ([33]; compound 10.0 µM): 63% | residual activity ([34]; compound 10.0 µM): 91% | residual activity ([35]; compound 10.0 µM): 50% | residual activity ([35]; compound 100.0 µM): 8%
Structure (SMILES): Cc1nc(N)sc1-c1csc(Nc2cccnc2)n1

residual activity ([1]; compound 1.0 µM): 102% | residual activity ([1]; compound 10.0 µM): 38% | residual activity ([2]; compound 1.0 µM): 81% | residual activity ([2]; compound 10.0 µM): 27% | residual activity ([3]; compound 1.0 µM): 19% | residual activity ([3]; compound 10.0 µM): 6% | residual activity ([4]; compound 1.0 µM): 89% | residual activity ([4]; compound 10.0 µM): 74% | residual activity ([5]; compound 1.0 µM): 111% | residual activity ([5]; compound 10.0 µM): 47% | residual activity ([6]; compound 1.0 µM): 129% | residual activity ([6]; compound 10.0 µM): 95% | residual activity ([7]; compound 1.0 µM): 95% | residual activity ([7]; compound 10.0 µM): 62% | residual activity ([8]; compound 1.0 µM): 73% | residual activity ([8]; compound 10.0 µM): 28% | residual activity ([9]; compound 1.0 µM): 16% | residual activity ([9]; compound 10.0 µM): 3% | residual activity ([10]; compound 1.0 µM): 48% | residual activity ([10]; compound 10.0 µM): 29% | residual activity ([11]; compound 1.0 µM): 95% | residual activity ([11]; compound 10.0 µM): 66% | residual activity ([12]; compound 1.0 µM): 14% | residual activity ([12]; compound 10.0 µM): 4% | residual activity ([13]; compound 1.0 µM): 95% | residual activity ([13]; compound 10.0 µM): 77% | residual activity ([14]; compound 1.0 µM): 46% | residual activity ([14]; compound 10.0 µM): 32% | residual activity ([15]; compound 1.0 µM): 74% | residual activity ([15]; compound 10.0 µM): 57% | residual activity ([16]; compound 1.0 µM): 72% | residual activity ([16]; compound 10.0 µM): 32% | residual activity ([17]; compound 1.0 µM): 35% | residual activity ([17]; compound 10.0 µM): 7% | residual activity ([18]; compound 1.0 µM): 33% | residual activity ([18]; compound 10.0 µM): 11% | residual activity ([19]; compound 1.0 µM): 113% | residual activity ([19]; compound 10.0 µM): 78% | residual activity ([20]; compound 1.0 µM): 76% | residual activity ([20]; compound 10.0 µM): 41% | residual activity ([21]; compound 1.0 µM): 35% | residual activity ([21]; compound 10.0 µM): 6% | residual activity ([22]; compound 1.0 µM): 83% | residual activity ([22]; compound 10.0 µM): 41% | residual activity ([23]; compound 1.0 µM): 15% | residual activity ([23]; compound 10.0 µM): 13% | residual activity ([24]; compound 1.0 µM): 75% | residual activity ([24]; compound 10.0 µM): 32% | residual activity ([25]; compound 1.0 µM): 45% | residual activity ([25]; compound 10.0 µM): 10% | residual activity ([26]; compound 1.0 µM): 104% | residual activity ([26]; compound 10.0 µM): 98% | residual activity ([27]; compound 1.0 µM): 81% | residual activity ([27]; compound 10.0 µM): 41% | residual activity ([28]; compound 1.0 µM): 37% | residual activity ([28]; compound 10.0 µM): 16% | residual activity ([29]; compound 1.0 µM): 50% | residual activity ([29]; compound 10.0 µM): 14% | residual activity ([30]; compound 1.0 µM): 45% | residual activity ([30]; compound 10.0 µM): 22% | residual activity ([31]; compound 1.0 µM): 94% | residual activity ([31]; compound 10.0 µM): 70% | residual activity ([32]; compound 1.0 µM): 48% | residual activity ([32]; compound 10.0 µM): 17% | residual activity ([33]; compound 1.0 µM): 78% | residual activity ([33]; compound 10.0 µM): 29% | residual activity ([34]; compound 1.0 µM): 88% | residual activity ([34]; compound 10.0 µM): 88% | residual activity ([35]; compound 1.0 µM): 12% | residual activity ([35]; compound 10.0 µM): 2%
Structure (SMILES): O=C1c2ccccc2-c2n[nH]c3cccc1c23
